Tested on: CT26 mouse colon carcinoma model
Assay: In vivo co-localisation of Cy7 labelled nCVTs, IVIS imaging
Method: The nCVTs labelled with cyanine 7 NHS Monoester dye (Cy7) of Example 7 were compared with similarly labeled liposomes of the same lipid constitution (Liposomes produced for loading and in vitro testing were prepared with 1.95 mg of DPPC and 0.05 mg of Cholesterol. Liposomes produced for in vivo experiments were PEGylated, and prepared with 2.61 mg of DPPC, 1.61 mg of DSPE-PEG2000 and 0.78 mg of cholesterol.) The samples were then injected through the tail vein of a CT26 mouse colon carcinoma model, with tumour formation subcutaneously on the back of the mouse.
Three groups of mice were injected with Cy7 labelled nCVTs, Cy7 labelled liposomes and free dye. After 24 hours, the mice were imaged using the In Vivo Imaging Systems (IVIS) spectrum.

Substance: cyanine 7 NHS Monoester dye [free dye]
- Relative fluorescence intensity of excised liver and kidney (24 hours, liposomes are PEGylated): reduced fluorescence intensity
- Accumulation of fluorescence at the tumour site (IVIS, whole mice) (tail vein injection, after 24 hours, liposomes are PEGylated): does not accumulate in the tumours
- Clearance (tail vein injection, mouse): rapidly cleared
- Elimination from the mouse (within 24 hours): largely eliminated

Reference: patent US12433843B2, “Biomolecular composites comprising modified cell ghosts” (National University of Singapore, priority 2017, dated 2025)
